Usually logD stands for lipophilicity at a set pH, counting ionised and neutral species. A higher logD goes with a more lipophilic compound. What is called IC50 is the midpoint of a concentration-inhibition curve. In general, solubility refers to how much of the substance goes into solution per volume. Read a low solubility as little dissolved substance. The term bioavailability denotes the share of a dose that reaches the circulation, judged against a reference dose that is usually intravenous. Read a low bioavailability as little systemic uptake. What is called clearance is a measure of how efficiently the substance is removed, as volume per time. A lower clearance goes with a low capacity for elimination. The half-life is how long it takes for the measured level to halve. Read a high half-life as slow loss.

Data set [1] in a line: Lipophilicity, logD of the compound at pH 6.8. The following applies: buffer. The class given is physicochemical.
In a further data set the target is Pepsin A (Homo sapiens, UniProt P0DJD9). The experiment in a line: Inhibition of human recombinant pepsinogen A expressed in Escherichia coli using fluorescence-quenched Dabcyl-E-R-Nle-F-L-S-F-P-EDANS substrate by fluorimetric assay.
In the next data set the target is T1, Gastricsin (Homo sapiens, UniProt P20142).
T1 sequence (P20142 whole entry): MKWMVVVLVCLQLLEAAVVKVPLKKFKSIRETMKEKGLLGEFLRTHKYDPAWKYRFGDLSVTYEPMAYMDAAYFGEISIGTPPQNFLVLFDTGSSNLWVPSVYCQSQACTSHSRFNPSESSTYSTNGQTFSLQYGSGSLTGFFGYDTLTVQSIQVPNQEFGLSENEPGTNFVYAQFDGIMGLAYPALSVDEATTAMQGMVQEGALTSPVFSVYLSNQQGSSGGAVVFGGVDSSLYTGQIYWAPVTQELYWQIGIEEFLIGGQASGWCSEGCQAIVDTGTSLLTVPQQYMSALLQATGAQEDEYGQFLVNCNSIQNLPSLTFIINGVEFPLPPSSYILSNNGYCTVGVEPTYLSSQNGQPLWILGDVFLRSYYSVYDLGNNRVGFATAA
The experiment in a line: Inhibition of human recombinant pepsinogen C expressed in Escherichia coli using fluorescence-quenched Dabcyl-E-R-Nle-F-L-S-F-P-EDANS substrate by fluorimetric assay.

The target in the next data set is Cathepsin D (Homo sapiens, UniProt P07339). Briefly: Inhibition of human recombinant procathepsin D expressed in SF9 cells using fluorescence-quenched Ac-E-D(EDANS)-KPILFFRLG-K(Dabcyl)-E-Amid substrate by fluorimetric assay.
The target in a further data set is T2, Cathepsin E (Homo sapiens, UniProt P14091).
T2 sequence (P14091 whole entry): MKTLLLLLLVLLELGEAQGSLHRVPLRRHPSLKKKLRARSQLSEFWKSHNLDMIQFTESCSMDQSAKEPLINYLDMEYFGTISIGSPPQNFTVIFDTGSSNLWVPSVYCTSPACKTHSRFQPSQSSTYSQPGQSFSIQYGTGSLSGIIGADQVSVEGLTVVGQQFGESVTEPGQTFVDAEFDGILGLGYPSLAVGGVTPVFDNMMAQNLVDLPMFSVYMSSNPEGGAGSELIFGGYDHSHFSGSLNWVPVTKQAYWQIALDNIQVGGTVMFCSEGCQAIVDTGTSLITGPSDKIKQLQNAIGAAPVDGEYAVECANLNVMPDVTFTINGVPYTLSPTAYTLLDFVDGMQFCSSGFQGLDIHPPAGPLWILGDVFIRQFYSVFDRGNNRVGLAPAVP
The experiment in a line: Inhibition of human recombinant human procathepsin E expressed in Escherichia coli using fluorescence-quenched Ac-E-D(EDANS)-KPILFFRLG-K(Dabcyl)-E-Amid substrate by fluorimetric assay.

The target of a further data set is Beta-secretase 1 (Homo sapiens, UniProt P56817). Briefly: Inhibition of human recombinant BACE1 expressed in SF9 cells using fluorescence-quenched RE(EDANS)-EVNLDAEF-K(DABSYL)-R substrate by fluorimetric assay.
Beta-secretase 1, sequence (P56817 whole entry): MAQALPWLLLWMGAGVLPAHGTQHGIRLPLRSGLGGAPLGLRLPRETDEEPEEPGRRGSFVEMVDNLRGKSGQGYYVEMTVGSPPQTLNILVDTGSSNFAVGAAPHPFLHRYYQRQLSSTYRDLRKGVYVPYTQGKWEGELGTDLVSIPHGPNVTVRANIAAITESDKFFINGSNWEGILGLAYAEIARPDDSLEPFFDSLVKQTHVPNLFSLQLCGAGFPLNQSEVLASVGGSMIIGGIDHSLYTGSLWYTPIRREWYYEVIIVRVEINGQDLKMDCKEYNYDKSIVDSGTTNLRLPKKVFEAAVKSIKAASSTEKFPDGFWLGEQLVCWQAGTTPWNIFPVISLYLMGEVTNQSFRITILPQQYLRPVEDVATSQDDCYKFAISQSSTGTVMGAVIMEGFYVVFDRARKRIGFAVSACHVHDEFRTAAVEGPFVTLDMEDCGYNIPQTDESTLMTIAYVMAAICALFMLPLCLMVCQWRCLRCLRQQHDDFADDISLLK
The next data set has as its target T3, Beta-secretase 2 (Homo sapiens, UniProt Q9Y5Z0).
T3 sequence (Q9Y5Z0 whole entry): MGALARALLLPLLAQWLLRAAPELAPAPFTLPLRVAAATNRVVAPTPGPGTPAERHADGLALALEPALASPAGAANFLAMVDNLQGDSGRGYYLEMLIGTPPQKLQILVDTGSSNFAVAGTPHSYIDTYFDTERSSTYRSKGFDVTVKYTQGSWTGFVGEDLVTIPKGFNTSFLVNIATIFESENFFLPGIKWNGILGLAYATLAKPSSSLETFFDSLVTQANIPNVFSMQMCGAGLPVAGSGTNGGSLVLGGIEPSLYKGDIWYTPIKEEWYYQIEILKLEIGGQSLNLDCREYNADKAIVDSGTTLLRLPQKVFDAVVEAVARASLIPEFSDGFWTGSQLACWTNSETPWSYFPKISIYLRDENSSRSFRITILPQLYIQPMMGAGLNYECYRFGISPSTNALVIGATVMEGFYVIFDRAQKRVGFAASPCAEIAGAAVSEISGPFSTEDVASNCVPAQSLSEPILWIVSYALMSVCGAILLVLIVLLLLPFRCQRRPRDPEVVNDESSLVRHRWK
Briefly: Inhibition of human recombinant BACE2 expressed in SF9 cells using fluorescence-quenched RE(EDANS)-EVNLDAEF-K(DABSYL)-R substrate by fluorimetric assay.

The target of another data set is Cytochrome P450 3A4 (Homo sapiens, UniProt P08684). The experiment in a line: Inhibition of CYP3A4 (unknown origin). It counts as ADME.
For another data set, the target named is Cytochrome P450 2C9 (Homo sapiens, UniProt P11712). The experiment in a line: Inhibition of CYP2C9 (unknown origin). It counts as ADME.
The next data set addresses Cytochrome P450 2D6 (Homo sapiens, UniProt P10635). Briefly: Inhibition of CYP2D6 (unknown origin). It counts as ADME.
Data set [2] relates to Salmonella typhimurium. Briefly: Mutagenicity in Salmonella typhimurium in presence of liver S9 fraction by Ames test. It counts as toxicity, organism-based. The following applies: salmonella enterica subsp. enterica serovar typhimurium.
The test system of data set [3] is Salmonella typhimurium. Briefly: Mutagenicity in Salmonella typhimurium in absence of liver S9 fraction by Ames test. The class given is toxicity, organism-based. The following applies: salmonella enterica subsp. enterica serovar typhimurium. Background: The Ames test uses bacterial strains that need an amino acid and regain growth without it when mutated back.

In data set [4] the target is Sodium channel protein type 5 subunit alpha (Homo sapiens, UniProt Q14524). The experiment in a line: Inhibition of Nav1.5 (unknown origin) by patch clamp assay. A general note: In patch-clamp work, channel activity is measured electrically.
Sodium channel protein type 5 subunit alpha, sequence (Q14524 whole entry): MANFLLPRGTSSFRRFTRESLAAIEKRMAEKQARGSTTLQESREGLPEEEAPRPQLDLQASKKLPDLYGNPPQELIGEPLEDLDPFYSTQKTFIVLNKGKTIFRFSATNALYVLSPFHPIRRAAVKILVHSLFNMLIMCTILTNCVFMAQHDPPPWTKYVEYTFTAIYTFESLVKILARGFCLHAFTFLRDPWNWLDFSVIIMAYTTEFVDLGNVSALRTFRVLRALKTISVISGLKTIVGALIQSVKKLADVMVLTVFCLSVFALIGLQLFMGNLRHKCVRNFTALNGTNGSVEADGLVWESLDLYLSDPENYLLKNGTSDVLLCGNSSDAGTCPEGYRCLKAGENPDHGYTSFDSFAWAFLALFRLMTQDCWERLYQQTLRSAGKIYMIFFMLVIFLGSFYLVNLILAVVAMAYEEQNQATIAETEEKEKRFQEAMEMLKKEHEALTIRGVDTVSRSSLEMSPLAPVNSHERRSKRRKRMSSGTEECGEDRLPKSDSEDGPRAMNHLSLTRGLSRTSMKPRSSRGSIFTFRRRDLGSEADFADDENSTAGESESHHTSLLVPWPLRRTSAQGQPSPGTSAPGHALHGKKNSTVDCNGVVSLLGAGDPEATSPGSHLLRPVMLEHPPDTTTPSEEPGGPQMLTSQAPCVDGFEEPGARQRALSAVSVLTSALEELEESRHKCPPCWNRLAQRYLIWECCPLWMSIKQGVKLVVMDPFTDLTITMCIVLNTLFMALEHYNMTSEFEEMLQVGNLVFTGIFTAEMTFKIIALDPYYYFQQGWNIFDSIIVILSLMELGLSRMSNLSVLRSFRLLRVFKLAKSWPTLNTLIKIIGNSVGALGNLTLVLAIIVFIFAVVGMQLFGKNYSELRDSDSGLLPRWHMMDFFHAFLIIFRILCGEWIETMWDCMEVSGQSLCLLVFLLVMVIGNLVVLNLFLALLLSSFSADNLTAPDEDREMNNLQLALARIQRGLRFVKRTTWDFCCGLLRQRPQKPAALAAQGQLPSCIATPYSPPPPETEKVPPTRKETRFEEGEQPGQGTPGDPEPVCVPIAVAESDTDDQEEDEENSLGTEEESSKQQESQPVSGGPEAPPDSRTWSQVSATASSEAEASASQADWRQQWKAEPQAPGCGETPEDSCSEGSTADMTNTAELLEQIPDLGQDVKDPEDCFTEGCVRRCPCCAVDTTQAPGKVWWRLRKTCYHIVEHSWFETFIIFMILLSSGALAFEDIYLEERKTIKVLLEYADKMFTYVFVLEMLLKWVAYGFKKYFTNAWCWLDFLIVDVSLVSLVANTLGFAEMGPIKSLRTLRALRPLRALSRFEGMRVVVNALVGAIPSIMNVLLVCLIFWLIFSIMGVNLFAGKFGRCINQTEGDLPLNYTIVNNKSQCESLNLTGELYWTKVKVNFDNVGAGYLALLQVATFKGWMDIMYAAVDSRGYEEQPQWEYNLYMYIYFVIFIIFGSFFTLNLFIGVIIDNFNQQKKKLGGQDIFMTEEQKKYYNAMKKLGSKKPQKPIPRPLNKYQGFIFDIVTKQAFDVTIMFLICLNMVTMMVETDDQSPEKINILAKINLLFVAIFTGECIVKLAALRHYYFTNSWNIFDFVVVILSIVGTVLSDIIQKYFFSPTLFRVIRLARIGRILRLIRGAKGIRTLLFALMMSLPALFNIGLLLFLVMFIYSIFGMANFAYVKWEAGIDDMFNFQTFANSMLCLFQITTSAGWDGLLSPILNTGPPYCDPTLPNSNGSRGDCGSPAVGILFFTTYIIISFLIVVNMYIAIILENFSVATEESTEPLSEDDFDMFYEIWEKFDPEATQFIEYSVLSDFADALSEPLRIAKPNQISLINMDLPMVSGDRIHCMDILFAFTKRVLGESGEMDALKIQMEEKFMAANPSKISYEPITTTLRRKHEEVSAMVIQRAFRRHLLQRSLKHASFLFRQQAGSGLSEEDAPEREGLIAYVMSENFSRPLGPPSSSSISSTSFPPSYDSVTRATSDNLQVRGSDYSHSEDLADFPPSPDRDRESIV
The target of data set [5] is Sodium channel protein type 2 subunit alpha (Homo sapiens, UniProt Q99250). The experiment in a line: Inhibition of Nav1.2 (unknown origin) by patch clamp assay.
Sodium channel protein type 2 subunit alpha, sequence (Q99250 whole entry): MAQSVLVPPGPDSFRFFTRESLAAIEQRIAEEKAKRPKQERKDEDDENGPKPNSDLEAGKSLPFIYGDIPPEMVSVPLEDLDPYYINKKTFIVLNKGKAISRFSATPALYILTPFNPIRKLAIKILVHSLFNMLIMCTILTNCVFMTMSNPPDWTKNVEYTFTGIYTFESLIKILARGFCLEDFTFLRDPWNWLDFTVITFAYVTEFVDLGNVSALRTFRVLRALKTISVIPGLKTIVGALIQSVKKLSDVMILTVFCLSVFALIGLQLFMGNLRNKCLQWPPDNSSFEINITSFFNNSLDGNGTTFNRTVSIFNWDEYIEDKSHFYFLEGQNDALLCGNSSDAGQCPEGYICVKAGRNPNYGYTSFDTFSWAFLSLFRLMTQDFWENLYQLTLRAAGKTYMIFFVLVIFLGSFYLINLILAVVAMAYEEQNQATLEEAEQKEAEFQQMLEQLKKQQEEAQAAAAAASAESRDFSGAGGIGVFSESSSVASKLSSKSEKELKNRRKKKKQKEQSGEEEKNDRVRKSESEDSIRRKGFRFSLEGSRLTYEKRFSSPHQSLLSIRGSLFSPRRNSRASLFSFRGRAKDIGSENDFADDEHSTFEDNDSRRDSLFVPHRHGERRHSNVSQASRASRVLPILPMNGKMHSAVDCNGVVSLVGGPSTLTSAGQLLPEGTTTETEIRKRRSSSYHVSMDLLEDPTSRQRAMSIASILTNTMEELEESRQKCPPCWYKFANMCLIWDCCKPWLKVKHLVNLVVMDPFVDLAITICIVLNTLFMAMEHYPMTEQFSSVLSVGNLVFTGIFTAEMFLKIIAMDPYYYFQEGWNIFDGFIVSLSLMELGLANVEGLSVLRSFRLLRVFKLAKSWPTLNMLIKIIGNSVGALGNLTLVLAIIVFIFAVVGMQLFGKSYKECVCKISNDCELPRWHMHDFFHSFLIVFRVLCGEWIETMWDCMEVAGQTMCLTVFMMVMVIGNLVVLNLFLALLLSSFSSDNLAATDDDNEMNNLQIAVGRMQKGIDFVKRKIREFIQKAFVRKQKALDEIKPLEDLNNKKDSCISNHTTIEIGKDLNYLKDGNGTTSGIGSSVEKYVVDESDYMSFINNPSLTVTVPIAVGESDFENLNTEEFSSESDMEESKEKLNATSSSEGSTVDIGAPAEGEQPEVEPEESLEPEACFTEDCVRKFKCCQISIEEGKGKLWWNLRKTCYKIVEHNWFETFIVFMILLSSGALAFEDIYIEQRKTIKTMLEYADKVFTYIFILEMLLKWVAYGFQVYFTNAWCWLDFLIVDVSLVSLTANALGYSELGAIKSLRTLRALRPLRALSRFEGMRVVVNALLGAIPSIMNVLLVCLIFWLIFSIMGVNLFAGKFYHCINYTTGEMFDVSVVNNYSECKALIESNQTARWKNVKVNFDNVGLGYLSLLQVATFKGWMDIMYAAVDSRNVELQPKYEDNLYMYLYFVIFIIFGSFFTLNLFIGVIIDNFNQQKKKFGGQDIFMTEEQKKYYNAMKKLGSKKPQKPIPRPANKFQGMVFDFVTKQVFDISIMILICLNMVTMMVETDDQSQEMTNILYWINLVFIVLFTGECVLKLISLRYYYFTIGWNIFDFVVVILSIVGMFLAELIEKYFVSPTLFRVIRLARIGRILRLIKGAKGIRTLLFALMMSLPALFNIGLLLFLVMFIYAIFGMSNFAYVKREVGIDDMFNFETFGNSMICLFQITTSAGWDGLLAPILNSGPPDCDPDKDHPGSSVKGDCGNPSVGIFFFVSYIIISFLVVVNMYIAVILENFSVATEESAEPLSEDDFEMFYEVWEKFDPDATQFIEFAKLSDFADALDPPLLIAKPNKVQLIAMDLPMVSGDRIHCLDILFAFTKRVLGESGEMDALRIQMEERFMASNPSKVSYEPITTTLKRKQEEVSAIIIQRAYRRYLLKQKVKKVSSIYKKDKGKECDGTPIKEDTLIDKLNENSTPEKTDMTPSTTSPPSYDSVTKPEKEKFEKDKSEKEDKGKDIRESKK
Data set [6] is described as follows: Chemical stability at 80 degC. It counts as physicochemical.
A short description of data set [7]: Solubility in water at pH 1 to 9. It counts as physicochemical.
Data set [8] deals with Rattus norvegicus. The experiment in a line: Reduction in mean arterial pressure in human renin and human angiotensinogen double transgenic rat at 3 mg/kg, po. The class given is functional, Artery.
In data set [9] the test system is Rattus norvegicus. The experiment in a line: Reduction in mean arterial pressure in human renin and human angiotensinogen double transgenic rat at 10 mg/kg, po. It counts as functional, Artery.
Data set [10] deals with Rattus norvegicus. The experiment in a line: Reduction in mean arterial pressure in human renin and human angiotensinogen double transgenic rat at 30 mg/kg, po. It counts as functional, Artery.
For data set [11], the system named is Rattus norvegicus. The experiment in a line: Reduction in mean arterial pressure in human renin and human angiotensinogen double transgenic rat at 100 mg/kg, po. It counts as functional, Artery.
A short description of data set [12]: Oral bioavailability in Sprague-Dawley rat at 6 mg/kg. The class given is ADME, organism-based. The following applies: in vivo.
Data set [13] is described as follows: Clearance in Sprague-Dawley rat at 2 mg/kg, iv. The class given is ADME, organism-based. On the set-up: dose 2 mg/kg, route intravenous. The following applies: in vivo.
Data set [14] can be described thus: Volume of distribution at steady state in Sprague-Dawley rat at 2 mg/kg, iv. On the set-up: dose 2 mg/kg, route intravenous. The class given is ADME, organism-based. The following applies: in vivo, read-out: Vdss.
Data set [15] in a line: Half life in Sprague-Dawley rat at 2 mg/kg, iv. The following applies: in vivo. On the set-up: dose 2 mg/kg, route intravenous. The class given is ADME, organism-based.
Data set [16] deals with Rattus norvegicus. Briefly: Dose normalized Cmax inSprague-Dawley rat at 6 mg/kg, po. The class given is ADME, organism-based, Sprague-Dawley. On the set-up: dose 6 mg/kg, route oral. Conditions: in vivo.
The test system of data set [17] is Rattus norvegicus. Briefly: Dose normalized AUC (infinity) in Sprague-Dawley rat at 6 mg/kg, po. It counts as ADME, organism-based. Conditions: in vivo. On the set-up: dose 6 mg/kg, route oral.
Data set [18] deals with Rattus norvegicus. The experiment in a line: Reduction in mean arterial pressure in human renin and human angiotensinogen double transgenic rat at 1 mg/kg, po. The class given is functional, Artery.

Bounds are passed on as bounds.

Cytochrome P450 2D6, sequence (P10635 whole entry): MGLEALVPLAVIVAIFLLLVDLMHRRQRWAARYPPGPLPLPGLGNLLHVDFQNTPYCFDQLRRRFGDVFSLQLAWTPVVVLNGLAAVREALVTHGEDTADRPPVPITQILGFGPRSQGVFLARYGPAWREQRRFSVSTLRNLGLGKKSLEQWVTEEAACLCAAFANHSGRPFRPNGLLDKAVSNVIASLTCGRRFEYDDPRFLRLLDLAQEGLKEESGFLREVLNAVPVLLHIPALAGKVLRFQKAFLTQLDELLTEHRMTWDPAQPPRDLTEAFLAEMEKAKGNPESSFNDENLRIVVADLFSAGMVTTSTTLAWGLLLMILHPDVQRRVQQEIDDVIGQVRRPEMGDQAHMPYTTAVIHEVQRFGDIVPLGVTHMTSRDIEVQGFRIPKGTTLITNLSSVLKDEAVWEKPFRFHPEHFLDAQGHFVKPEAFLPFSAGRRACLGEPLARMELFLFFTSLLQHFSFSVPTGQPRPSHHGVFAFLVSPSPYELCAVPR

`CCOC[C@@H](CC(C)C)NC(=O)[C@@H]1CNC[C@H](C(=O)N(c2ccc(C(C)C)cn2)C2CC2)[C@@H]1O`: the logD in data set [1] is 0.93. Further, the concentration for half-maximal inhibition (IC50) on Pepsin A, at Gastricsin, on Cathepsin D, on Cathepsin E, at Beta-secretase 1 and at Beta-secretase 2 was greater than 30 µM in each case. Also, the half-inhibitory concentration (IC50) (against Cytochrome P450 3A4; on Cytochrome P450 2C9; on Cytochrome P450 2D6; in data set [4]; in data set [5]) was greater than 30 µM each time. Besides, the Activity entry in the data set on Salmonella typhimurium [2] and in the data set on Salmonella typhimurium [3] was “Non-toxic” throughout. The same compound returned a Stability in data set [6] of 3 days. The compound further came in with a solubility in [7] greater than 10000 µg/mL.
In the case of `CCOC[C@@H](CC(C)C)NC(=O)[C@@H]1CNC[C@H](C(=O)N(c2ccc(C(C)C)cn2)C2CC2)[C@@H]1O.O=C(O)CCC(=O)O`, the Activity in the data set on Rattus norvegicus [8] worked out at 42 mmHg; in the data set on Rattus norvegicus [9], 52 mmHg; in the data set on Rattus norvegicus [10], 63 mmHg; with Rattus norvegicus [11] it was 66 mmHg; in the data set with Rattus norvegicus [18] it was 33 mmHg. Further, the bioavailability in data set [12] worked out at 61%. The same compound showed a clearance in data set [13] of 40 mL/min/kg. Further, the Vd in data set [14] was found to be 4 L/kg. In data set [15], this compound gave a half-life of 6.8 h. The Cmax/dose in the data set with Rattus norvegicus [16] was 136 nM/mg/kg. In addition, the AUC/dose in the data set on Rattus norvegicus [17] came out at 552 nM·h/mg/kg.

(Values after ChEMBL document CHEMBL3352242, “Structure-based design of substituted piperidines as a new class of highly efficacious oral direct Renin inhibitors” (ACS Med Chem Lett, 2014).)
